Test results: patent publication US11655217B2, “Pyrazole MAGL inhibitors” (H. Lundbeck A/S, priority 2017, dated 2023)

What was measured:
FAAH = FAAH (Mus musculus (Mouse), UniProt O08914); assay: Mouse brain proteomes from inhibitor treated mice (oral gavage, sacrificed 4 h after administration, ABPP analysis), FAAH; settings: 5 mg/kg oral gavage
Protocol: (§1) Preparation of Mouse Brain Proteomes from Inhibitor Treated Mice.
(§2) Inhibitors were administered to wild-type C57Bl/6J by oral gavage in a vehicle of polyethylene glycol.

MAGL = MAGL (Mus musculus (Mouse), UniProt O35678); assay: Mouse brain proteomes from inhibitor treated mice (oral gavage, sacrificed 4 h after administration, ABPP analysis); settings: 5 mg/kg oral gavage
Chain of MAGL (O35678 whole entry): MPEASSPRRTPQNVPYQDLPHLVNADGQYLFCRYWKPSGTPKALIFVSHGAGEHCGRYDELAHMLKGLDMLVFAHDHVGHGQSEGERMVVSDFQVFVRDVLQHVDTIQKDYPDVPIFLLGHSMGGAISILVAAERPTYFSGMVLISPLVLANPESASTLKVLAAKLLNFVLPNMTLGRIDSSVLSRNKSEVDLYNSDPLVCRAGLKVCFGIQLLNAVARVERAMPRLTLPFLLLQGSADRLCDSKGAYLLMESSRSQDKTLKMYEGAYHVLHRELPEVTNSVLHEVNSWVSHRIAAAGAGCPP
Protocol: as §1, §2

Chain of FAAH (O08914 whole entry): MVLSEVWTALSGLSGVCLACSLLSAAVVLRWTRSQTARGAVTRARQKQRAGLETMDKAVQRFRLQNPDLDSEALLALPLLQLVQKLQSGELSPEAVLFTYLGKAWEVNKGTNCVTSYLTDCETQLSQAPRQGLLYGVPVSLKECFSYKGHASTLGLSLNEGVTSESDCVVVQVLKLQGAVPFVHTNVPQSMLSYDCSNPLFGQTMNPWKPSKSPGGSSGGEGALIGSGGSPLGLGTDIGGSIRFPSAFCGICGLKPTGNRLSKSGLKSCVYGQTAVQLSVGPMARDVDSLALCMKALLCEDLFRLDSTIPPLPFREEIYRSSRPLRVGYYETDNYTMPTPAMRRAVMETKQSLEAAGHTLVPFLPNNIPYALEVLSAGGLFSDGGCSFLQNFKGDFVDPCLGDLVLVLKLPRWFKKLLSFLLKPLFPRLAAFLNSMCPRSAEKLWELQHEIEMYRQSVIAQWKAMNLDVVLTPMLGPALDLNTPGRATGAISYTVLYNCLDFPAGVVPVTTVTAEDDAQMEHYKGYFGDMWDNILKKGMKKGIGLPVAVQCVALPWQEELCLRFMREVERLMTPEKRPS

Q: How did the “FAAH % inh. 5 mg/kg (mouse)” value (FAAH) turn out when `CC1CCC(C)N1c1cc(C(F)(F)F)ccc1CN1CCN(C(=O)n2ccc(C(=O)O)n2)CC1` (centres unmarked) [Example 114, 1-(4-(2-(2,5-dimethylpyrrolidin-1-yl)-4-(trifluoromethyl)benzyl)piperazine-1-carbonyl)-1H-pyrazole-3-carboxylic acid] was run?
A: D (% inhibition is greater than or equal to 0% and less than 25%)

Q: What about the “MAGL % inh. 5 mg/kg (mouse)” value (MAGL) of the same molecule?
A: D (% inhibition is greater than or equal to 0% and less than 25%)

Q: Which “FAAH % inh. 5 mg/kg (mouse)” value (FAAH) does the source give for `O=C(O)c1ccn(C(=O)N2CCN(Cc3ccc(C(F)(F)F)c(N4CCCC4)c3)CC2)n1` [Example 7, 1-(4-(3-(Pyrrolidin-1-yl)-4-(trifluoromethyl)benzyl)piperazine-1-carbonyl)-1H-pyrazole-3-carboxylic Acid] here?
A: D (% inhibition is greater than or equal to 0% and less than 25%)

Q: And the “MAGL % inh. 5 mg/kg (mouse)” value (MAGL)?
A: D (% inhibition is greater than or equal to 0% and less than 25%)

Q: Which “FAAH % inh. 5 mg/kg (mouse)” value (FAAH) does the source give for `O=C(O)c1ccn(C(=O)N2CCN(Cc3ccc(C(F)(F)F)cc3N3CCC(O)CC3)CC2)n1` [Example 120, 1-(4-(2-(4-hydroxypiperidin-1-yl)-4-(trifluoromethyl)benzyl)piperazine-1-carbonyl)-1H-pyrazole-3-carboxylic acid] here?
A: D (% inhibition is greater than or equal to 0% and less than 25%)

Q: And the “MAGL % inh. 5 mg/kg (mouse)” value (MAGL)?
A: D (% inhibition is greater than or equal to 0% and less than 25%)

Q: For `NC(=O)C1CCN(c2cc(C(F)(F)F)ccc2CN2CCN(C(=O)n3ccc(C(=O)O)n3)CC2)CC1` [Example 113, 1-(4-(2-(4-carbamoylpiperidin-1-yl)-4-(trifluoromethyl)benzyl)piperazine-1-carbonyl)-1H-pyrazole-3-carboxylic acid], which “FAAH % inh. 5 mg/kg (mouse)” value (FAAH) is on record?
A: D (% inhibition is greater than or equal to 0% and less than 25%)

Q: And the “MAGL % inh. 5 mg/kg (mouse)” value (MAGL)?
A: D (% inhibition is greater than or equal to 0% and less than 25%)

Q: Which results are given for `O=C(O)c1ccn(C(=O)N2CCN(Cc3ccc(C(F)(F)F)cc3N3CCN(C4CC4)CC3)CC2)n1` [Example 6, 1-(4-(2-(4-Cyclopropylpiperazin-1-yl)-4-(trifluoromethyl)benzyl)piperazine-1-carbonyl)-1H-pyrazole-3-carboxylic Acid]?
A: FAAH % inh. 5 mg/kg (mouse) (FAAH): D (% inhibition is greater than or equal to 0% and less than 25%); MAGL % inh. 5 mg/kg (mouse) (MAGL): D (% inhibition is greater than or equal to 0% and less than 25%)

Q: What does the source list for `COC1CCN(c2cc(C(F)(F)F)ccc2CN2CCN(C(=O)n3ccc(C(=O)O)n3)CC2)CC1` [Example 12, 1-(4-(2-(4-Methoxypiperidin-1-yl)-4-(trifluoromethyl)benzyl)piperazine-1-carbonyl)-1H-pyrazole-3-carboxylic Acid]?
A: FAAH % inh. 5 mg/kg (mouse) (FAAH): D (% inhibition is greater than or equal to 0% and less than 25%); MAGL % inh. 5 mg/kg (mouse) (MAGL): D (% inhibition is greater than or equal to 0% and less than 25%)

Q: Which “FAAH % inh. 5 mg/kg (mouse)” value (FAAH) does the source give for `CC(=O)NC1CCN(c2cc(C(F)(F)F)ccc2CN2CCN(C(=O)n3ccc(C(=O)O)n3)CC2)CC1` [Example 119, 1-(4-(2-(4-acetamidopiperidin-1-yl)-4-(trifluoromethyl)benzyl)piperazine-1-carbonyl)-1H-pyrazole-3-carboxylic acid] here?
A: D (% inhibition is greater than or equal to 0% and less than 25%)

Q: And the “MAGL % inh. 5 mg/kg (mouse)” value (MAGL)?
A: D (% inhibition is greater than or equal to 0% and less than 25%)

Q: What does the source list for `O=C(O)c1ccn(C(=O)N2CCN(Cc3cccc(Cl)c3N3CC4COCC4C3)CC2)n1` (centres unmarked) [Example 211, 1-(4-(3-chloro-2-(tetrahydro-1H-furo[3,4-c]pyrrol-5(3H)-yl)benzyl)piperazine-1-carbonyl)-1H-pyrazole-3-carboxylic acid]?
A: FAAH % inh. 5 mg/kg (mouse) (FAAH): D (% inhibition is greater than or equal to 0% and less than 25%); MAGL % inh. 5 mg/kg (mouse) (MAGL): D (% inhibition is greater than or equal to 0% and less than 25%)

Q: Which results are given for `O=C(O)c1ccn(C(=O)N2C[C@H]3C[C@H](OCc4ccc(Oc5ccc(Cl)cc5)cc4)C[C@H]3C2)n1` [Example 55, 1-(trans-5-((4-(4-chlorophenoxy)benzyl)-oxy)octahydrocyclo-penta-[c]pyrrole-2-carbonyl)-1H-pyrazole-3-carboxylic acid]?
A: FAAH % inh. 5 mg/kg (mouse) (FAAH): D (% inhibition is greater than or equal to 0% and less than 25%); MAGL % inh. 5 mg/kg (mouse) (MAGL): D (% inhibition is greater than or equal to 0% and less than 25%)

Q: What does the source list for `CN(Cc1ccc(C(F)(F)F)cc1-c1nccs1)C1(C)CCN(C(=O)n2ccc(C(=O)O)n2)CC1` [Example 10, 1-(4-methyl-4-(methyl(2-(thiazol-2-yl)-4-(trifluoromethyl)benzyl)amino)piperidine-1-carbonyl)-1H-pyrazole-3-carboxylic Acid]?
A: FAAH % inh. 5 mg/kg (mouse) (FAAH): D (% inhibition is greater than or equal to 0% and less than 25%); MAGL % inh. 5 mg/kg (mouse) (MAGL): D (% inhibition is greater than or equal to 0% and less than 25%)

Q: With `Cc1cn(C(=O)N2CCC3(CCN(Cc4cc(Cl)ccc4C(F)(F)F)C3)CC2)nc1C(=O)O` [Example 130, 1-(2-(5-chloro-2-(trifluoromethyl)benzyl)-2,8-diazaspiro[4.5]decane-8-carbonyl)-4-methyl-1H-pyrazole-3-carboxylic acid] as the molecule, how does the “FAAH % inh. 5 mg/kg (mouse)” value (FAAH) read?
A: D (% inhibition is greater than or equal to 0% and less than 25%)

Q: And the “MAGL % inh. 5 mg/kg (mouse)” value (MAGL)?
A: D (% inhibition is greater than or equal to 0% and less than 25%)

Q: How did the “FAAH % inh. 5 mg/kg (mouse)” value (FAAH) turn out when `O=C(O)c1ccn(C(=O)N2CC3CN(Cc4ccc(N5CCCC5)cc4C(F)(F)F)CC3C2)n1` (centres unmarked) [Example 123, 1-(5-(4-(pyrrolidin-1-yl)-2-(trifluoromethyl)benzyl)octahydro-pyrrolo[3,4-c]pyrrole-2-carbonyl)-1H-pyrazole-3-carboxylic acid] was run?
A: D (% inhibition is greater than or equal to 0% and less than 25%)

Q: What about the “MAGL % inh. 5 mg/kg (mouse)” value (MAGL) of the same molecule?
A: D (% inhibition is greater than or equal to 0% and less than 25%)

Q: Which “FAAH % inh. 5 mg/kg (mouse)” value (FAAH) does the source give for `O=C(O)c1ccn(C(=O)N2CCN(Cc3ccc(Cl)cc3N3C4CCC3COC4)CC2)n1` [Example 105, 1-(4-(2-(3-oxa-8-azabicyclo[3.2.1]octan-8-yl)-4-chlorobenzyl)piper-azine-1-carbonyl)-1H-pyrazole-3-carboxylic acid] here?
A: D (% inhibition is greater than or equal to 0% and less than 25%)

Q: What about the “MAGL % inh. 5 mg/kg (mouse)” value (MAGL) of the same molecule?
A: D (% inhibition is greater than or equal to 0% and less than 25%)

Q: For `NC(=O)c1ccn(C(=O)N2CCN(Cc3cccc(C(F)(F)F)c3N3CCOCC3)CC2)n1` [Example 199, 1-(4-(2-morpholino-3-(trifluoromethyl)benzyl)piperazine-1-carbonyl)-1H-pyrazole-3-carboxamide], which “FAAH % inh. 5 mg/kg (mouse)” value (FAAH) is on record?
A: D (% inhibition is greater than or equal to 0% and less than 25%)

Q: And the “MAGL % inh. 5 mg/kg (mouse)” value (MAGL)?
A: A (% inhibition is greater than or equal to 75%)

Q: For `O=C(O)c1ccn(C(=O)N2CCN(Cc3ccc(C(F)(F)F)cc3N3CCCC3)CC2)n1` [Example 83, 1-(4-(2-(pyrrolidin-1-yl)-4-(trifluoromethyl)benzyl)piperazine-1-carbonyl)-1H-pyrazole-3-carboxylic acid], which “FAAH % inh. 5 mg/kg (mouse)” value (FAAH) is on record?
A: D (% inhibition is greater than or equal to 0% and less than 25%)

Q: And the “MAGL % inh. 5 mg/kg (mouse)” value (MAGL)?
A: D (% inhibition is greater than or equal to 0% and less than 25%)

Q: With `O=C(O)c1nn(C(=O)N2CCC3(CCN(Cc4cc(Cl)ccc4C(F)(F)F)C3)CC2)cc1C(F)(F)F` [Example 148, 1-(2-(5-chloro-2-(trifluoromethyl)benzyl)-2,8-diazaspiro[4.5]decane-8-carbonyl)-4-(trifluoromethyl)-1H-pyrazole-3-carboxylic acid] as the molecule, how does the “FAAH % inh. 5 mg/kg (mouse)” value (FAAH) read?
A: C (% inhibition is greater than or equal to 25% and less than 50%)

Q: What about the “MAGL % inh. 5 mg/kg (mouse)” value (MAGL) of the same molecule?
A: D (% inhibition is greater than or equal to 0% and less than 25%)
